What was measured:
Assay in all cases: direct labeling of recombinantly expressed proteins by gel-based ABPP (WT vs lysine mutant)
Assay type in all cases: binding
TPMT = target: T1, TPMT (Homo sapiens, UniProt P51580); settings: TPMT K32, KR mutant; 10 μM probe, 1 h
T1 construct: expressed in transfected cells; host or cells: HEK 293T
T1 sequence (P51580 1-245): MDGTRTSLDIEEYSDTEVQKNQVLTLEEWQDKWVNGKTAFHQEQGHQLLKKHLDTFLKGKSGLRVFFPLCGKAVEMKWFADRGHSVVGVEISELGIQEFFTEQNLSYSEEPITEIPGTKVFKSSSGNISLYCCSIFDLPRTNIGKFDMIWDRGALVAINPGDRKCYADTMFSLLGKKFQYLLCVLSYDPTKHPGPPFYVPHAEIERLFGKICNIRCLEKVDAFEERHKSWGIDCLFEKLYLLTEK

PNPO = target: T2, PNPO (Homo sapiens, UniProt Q9NVS9); settings: PNPO K100, KR mutant; 10 μM probe, 1 h
T2 construct: Flag; expressed in transfected cells; host or cells: HEK 293T, transient transfection, soluble lysate
T2 sequence (Q9NVS9 1-261): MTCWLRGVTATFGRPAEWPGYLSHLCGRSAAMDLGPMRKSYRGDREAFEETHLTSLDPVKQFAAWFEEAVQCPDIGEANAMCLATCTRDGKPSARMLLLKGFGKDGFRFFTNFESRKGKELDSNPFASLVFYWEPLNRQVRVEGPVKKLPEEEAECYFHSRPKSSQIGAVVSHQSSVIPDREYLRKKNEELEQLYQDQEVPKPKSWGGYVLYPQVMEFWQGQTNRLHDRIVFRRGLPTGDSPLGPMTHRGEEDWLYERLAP

HK1 = target: T3, HK1 (Homo sapiens, UniProt P19367); settings: HK1 K510, KR mutant; 10 μM probe, 1 h
T3 construct: Flag; expressed in transfected cells; host or cells: HEK 293T
T3 sequence (P19367 1-917): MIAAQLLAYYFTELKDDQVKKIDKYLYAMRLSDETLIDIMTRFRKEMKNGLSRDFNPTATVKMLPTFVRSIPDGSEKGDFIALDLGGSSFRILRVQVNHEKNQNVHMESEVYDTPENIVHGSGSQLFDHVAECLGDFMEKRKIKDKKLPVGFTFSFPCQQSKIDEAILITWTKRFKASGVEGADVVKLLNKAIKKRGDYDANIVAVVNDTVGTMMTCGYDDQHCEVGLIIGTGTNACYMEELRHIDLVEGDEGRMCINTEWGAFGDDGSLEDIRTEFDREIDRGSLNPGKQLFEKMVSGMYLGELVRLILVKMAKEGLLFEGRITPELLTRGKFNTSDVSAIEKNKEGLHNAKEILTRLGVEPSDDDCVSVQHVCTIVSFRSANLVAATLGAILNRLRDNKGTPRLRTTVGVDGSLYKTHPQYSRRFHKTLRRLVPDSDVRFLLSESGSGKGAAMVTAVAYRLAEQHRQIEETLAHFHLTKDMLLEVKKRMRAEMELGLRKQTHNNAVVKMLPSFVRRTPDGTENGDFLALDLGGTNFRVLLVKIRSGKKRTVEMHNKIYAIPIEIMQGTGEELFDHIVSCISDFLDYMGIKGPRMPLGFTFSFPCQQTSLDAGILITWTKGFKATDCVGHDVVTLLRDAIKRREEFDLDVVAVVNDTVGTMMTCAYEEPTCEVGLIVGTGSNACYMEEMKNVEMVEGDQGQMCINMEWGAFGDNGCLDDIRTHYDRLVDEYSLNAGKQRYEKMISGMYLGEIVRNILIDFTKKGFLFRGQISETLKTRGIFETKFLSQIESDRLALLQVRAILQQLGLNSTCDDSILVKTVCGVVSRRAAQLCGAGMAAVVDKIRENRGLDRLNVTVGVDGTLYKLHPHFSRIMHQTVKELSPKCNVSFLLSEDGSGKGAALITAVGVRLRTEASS

| Compound | labeling of WT vs mutant protein by probe (TPMT) | labeling of WT vs mutant protein by probe (PNPO) | labeling of WT vs mutant protein by probe (HK1) |
| --- | --- | --- | --- |
| C#CCCC(=O)Oc1c(F)c(F)c(S(=O)(=O)[O-])c(F)c1F.[Na+] [probe 1, reference compound] | HD (the WT labeled more than the mutant (>4x difference quantified)) | HD (the WT labeled more than the mutant (>4x difference quantified)) | PD (the WT labeled more than the mutant (>2x difference quantified)) |
| C#CCCC(=O)Oc1c(F)c(F)c(F)c(F)c1F [probe 6, Pentafluorophenyl 4-pentynoate] | ND (the WT did not label more than the mutant (<2x difference quantified)) | PD (the WT labeled more than the mutant (>2x difference quantified)) | HD (the WT labeled more than the mutant (>4x difference quantified)) |
| C#Cc1ccc(C(=O)Oc2c(F)c(F)cc(F)c2F)cc1 [probe 12, 2,3,5,6-Tetrafluorophenyl 4-ethynylbenzoate] | ND (the WT did not label more than the mutant (<2x difference quantified)) | PD (the WT labeled more than the mutant (>2x difference quantified)) | ND (the WT did not label more than the mutant (<2x difference quantified)) |
| C#Cc1ccc(C(=O)Oc2c(F)c(F)c(F)c(F)c2F)cc1 [probe 13, Pentafluorophenyl 4-ethynylbenzoate] | ND (the WT did not label more than the mutant (<2x difference quantified)) | ND (the WT did not label more than the mutant (<2x difference quantified)) | ND (the WT did not label more than the mutant (<2x difference quantified)) |
| Cc1cc(C)n2c1C=C1C=CC(CCC(=O)Oc3c(F)c(F)c(S(=O)(=O)[O-])c(F)c3F)=[N+]1[B-]2(F)F.[Na+] [probe 18, reference compound] | HD (the WT labeled more than the mutant (>4x difference quantified)) | PD (the WT labeled more than the mutant (>2x difference quantified)) | ND (the WT did not label more than the mutant (<2x difference quantified)) |

Source: US20210255193A1, “LYSINE REACTIVE PROBES AND USES THEREOF” (The Scripps Research Institute, priority 2017, published 2021)
